What was measured:
MM PDX tumor = experiment: MM patient-derived tumor xenograft (PDX) model; format: in vivo, NOD/SCID mice; conditions: IHC and IF, single treatment
Method: The biopsy sample was taken from tumor tissue excised from MM patient at Nanjing Hospital of Chinese Medicine affiliated with Nanjing University of Chinese Medicine. The tissue was then cut into 2.5×2.5×2.5 mm^3 pieces and transplanted subcutaneously into 6-week-old NOD/SCID male mice (n = 6 mice in each group) under anesthesia with 1% sodium pentobarbital. […] This process was repeated three times to ensure stable tumor growth. […] Single treatment was administered every three days, while combination treatment was administered every other day.

[1] = system: 5TMM3VT mouse myeloma cells; experiment: 5TMM3VT mouse model; format: in vivo, C57BL/KaLwRij mice; conditions: single treatment; BBA 5 mg/kg, BTZ 1 mg/kg
Method: 5TMM3VT mouse myeloma cells (1 × 10^6) were injected through the tail vein into C57BL/KaLwRij mice from Harlan Laboratories (n = 9 per group). The mice were randomly divided into four groups (Ctrl, BBA, BTZ and BBA+BTZ combination groups). On the third day after modeling, oral administration of PBS, BBA (5 mg/kg) and BTZ (1 mg/kg) was performed twice a week, while combination therapy was administered every other day.

c-Maf protein [2] = target: T1, c-Maf protein (Homo sapiens, UniProt O75444); experiment: Microscale thermophoresis (MST) binding to c-Maf protein; conditions: labelled purified c-Maf protein; read-out: MST dissociation constant (Kd)
T1 construct: made in house; host or cells: prokaryotic (pET-28a vector)
T1 sequence (O75444 1-373): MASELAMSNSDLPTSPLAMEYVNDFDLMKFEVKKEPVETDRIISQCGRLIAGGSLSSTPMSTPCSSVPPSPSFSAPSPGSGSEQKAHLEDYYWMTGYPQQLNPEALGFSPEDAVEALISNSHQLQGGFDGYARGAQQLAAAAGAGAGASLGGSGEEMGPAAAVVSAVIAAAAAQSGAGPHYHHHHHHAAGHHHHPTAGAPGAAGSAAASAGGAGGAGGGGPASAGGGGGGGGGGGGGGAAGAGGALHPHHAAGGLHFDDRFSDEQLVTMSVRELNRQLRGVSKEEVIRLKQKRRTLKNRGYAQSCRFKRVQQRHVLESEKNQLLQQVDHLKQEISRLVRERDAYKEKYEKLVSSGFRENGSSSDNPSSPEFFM
Method: To determine if the screened compound interacts with the c-Maf protein, we used a MonolithTM RED-NHS second generation protein labelling kit (NanoTemper Germany) to fluorescently label 10 µM of purified c-Maf protein. We then mixed various concentrations of the drug with an equal concentration of c-Maf protein and incubated the mixture for 5 min at room temperature. The mixture was then aspirated with a capillary tube and the binding capacity was measured using a new generation biomolecular interaction assay (NanoTemper Germany). The Kd values were calculated using analytical software.

c-Maf protein [3] = target: T1, c-Maf protein; experiment: Surface plasmon resonance (SPR) binding to c-Maf protein; conditions: values given in mM; read-out: SPR dissociation constant (Kd)
ARP1 cells = experiment: MTT proliferation assay, ARP1 cells; format: cell-based, human; conditions: ARP1 WT; Table 2 prints no cell line, its BBA value equals the ARP1 IC50 of b29

| Compound | Expression of c-Maf, Ki67, RNA Pol II, Mtbp, c-Myc and c-Maf/RNA Pol II co-localization in tumors (MM PDX tumor) | Survival time of 5TMM3VT mice [1] | Kd (c-Maf protein [2]) | Kd (c-Maf protein [3]) | MTT IC50 (ARP1 cells) |
| --- | --- | --- | --- | --- | --- |
| CC(C)C[C@H](NC(=O)[C@H](Cc1ccccc1)NC(=O)c1cnccn1)B(O)O [BTZ, bortezomib] | inhibited | significantly improved |  |  |  |
| Chlorophenylacetamide |  |  | 555 µM | 3.31 mM | Unstable |
